Data set [1] in a line: Draves Wetting Test (ASTM D2281-68), wet-out time. Type of data set: physicochemical. The following applies: 0.05 wt % actives in DI water, average of 3. The procedure:
The surface wetting ability of the amine oxides with linear and branched hydrophobes from Examples 43 to 45 were compared using the Draves Wetting Test (ASTM D2281-68). A 0.05 wt % (actives basis) solution of amine oxide in deionized (DI) water was used to determine the Draves wet-out time (WOT) in seconds. 0.75 g of surfactant was dispersed in 1,500 ml of DI water. The wet-out time (WOT) in seconds is recorded in Table 7 (average of 3 measurements). LAO is Lauramine oxide (linear hydrophobe), Sigma catalog number 40236.

A short description of data set [2]: Foam height, high shear (Waring blender) in deionized water. The class given is physicochemical. The following applies: for Foam volume (ml) 5 min / Foam volume (ml) Initial: 0.05 wt % in deionized water; for Foam volume (ml) 5 min: after 5 min; for Foam volume (ml) Initial: blended High 30 s. The procedure: The surface foam volume and persistence of the amine oxides with linear and branched hydrophobes from Examples 43 and 44 were compared. A 0.05 wt % (actives basis) solution of the test surfactant was made in deionized water. 250 ml of the test solution was added the beaker of a Waring blender, capped, and then blended on High for 30 seconds and immediately transferred to a 1 L graduated cylinder. The total volume of foam plus liquid, as well as the liquid layer alone was recorded. The foam and liquid volumes were recorded again after 5 minutes.

The nature of data set [3]: Salt thickening: viscosity of SLS/SLES/amine oxide formulation vs NaCl content. The conditions noted are these: 1.4% amine oxide, 4.3% SLS, 4.3% SLES, shear rate 3/s. Type of data set: physicochemical. On the procedure:
The viscosity (cP; shear rate 3/s) of a simple formulation was measured as the salt concentration varied from 0 to 5 wt %.

The nature of data set [4]: Stain removal in cold water, swatch brightness, simple laundry liquid. The conditions noted are these: 0.05% active additive, compared to LAO.
Protocol: Amine oxides with linear and branched hydrophobes were compared in a screen for stain removal in cold water. Simple laundry liquid formulations were made that included only surfactants and builder.
Standard stain swatches were purchased from Testfabrics, Inc. (West Pittston, Pa.). […] The swatches were pre-cut into 2 inch squares. The test formulation was diluted with DI water to 0.06% total surfactant to make the wash solution. Additives were added at a final concentration of 0.05% active in the wash solution. Stained fabric swatches were added to the wash solution, washed and rinsed at 20° C., and air-dried. The average swatch brightness (L*) for each treatment, and standard deviation, are reported for 3 replicates.
Data set [5] concerns zein protein. Also on record: species or system corn. The conditions noted are these: 1% surfactant solution, 30 C, 30 min, triplicate.
Protocol: For the test, 0.0750 g of zein protein is transferred into a 1.5 mL centrifuge tube. To this 1.5 mL of 1% surfactant solution is added, mixed, and placed in a 30 C incubator with mild stirring for 30 minutes. After 30 minutes has elapsed, the tube is centrifuged for 30 min at 3600 rpm. The solution is filtered through a pre-weighed 8 micron filter paper, and then dried overnight in a 50° C. oven. The insoluble zein residue is then weighed and the wt % Zein dissolved is calculated using the equation below. Each solution is analyzed in triplicate. The Zein score is normalized to a standard included in each set of tests, in this case LAE10; (% zein dissolved=(total zein added−total zein after drying÷Total zein added)×100).
Data set [6] can be described thus: Foaming in diluted commercial laundry liquid (Persil Original), Waring blender. Type of data set: physicochemical. The following applies: for Difference: initial minus 5 min. On the procedure: The surface foam volume and foam persistence of solutions of the amine oxides with linear and branched hydrophobes from Examples 25 and 26 were compared. A commercial laundry liquid was diluted in deionized water according to the dosing instructions; 4.2 ml/L Persil Original. The diluted detergent was supplemented with 0%, 2%, 5% (based on wt laundry liquid) of LAO or Branched C12 AO,(2,4-diethyl-N,N-dimethyloctan-1-amine oxide, Example 66), and the solutions mixed briefly and used immediately. 250 ml of each test solution was added the beaker of a Waring blender, capped, and then blended on High for 30 seconds and immediately transferred to a 1 L graduated cylinder. The total volume of foam plus liquid, as well as the liquid layer alone was recorded. The foam and liquid volumes were recorded again after 5 minutes. All tests were performed in triplicate.

Bounds are passed on as bounds.

On to “4-ethyl-N,N-2-trimethyloctan-1-amine oxide [Example 43]”, for which the Wet out time in data set [1] was above 300 s. Also, in data set [2], the “Foam volume (ml) 5 min” value stood at 0 mL and the “Foam volume (ml) Initial” value is 267 mL. The “% decrease” value in data set [2] (foam volume, initial to 5 min) was found to be 100%.

On to `CCCCC(CC)CC(C)C[N+](C)(C)[O-]` (centres unmarked) [Example 43, 4-ethyl-N,N-2-trimethyloctan-1-amine oxide], for which the Viscosity is listed as 7 cP in data set [3] (NaCl 0.5 wt %), 36 cP in data set [3] (NaCl 1.0 wt %) and 670 cP in data set [3] (NaCl 4.0 wt %). Also, the “Foam in the wash solution” value in data set [4] was “very little foam”.

Compound `CCCCC(CC)CC(CC)C[N+](C)(C)[O-]` (centres unmarked) [Example 44, 2,4-diethyl-N,N-dimethyloctan-1-amine oxide] displayed a Wet out time in data set [1] above 300 s. In addition, in data set [2], the “Foam volume (ml) 5 min” value was 0 mL and the “Foam volume (ml) Initial” value amounted to 370 mL. Besides, the “Zein score - normalized to LAE10” value in data set [5] stood at 0.018. In addition, the “Initial foam volume” value in data set [6] (Persil Original 4.2 ml/L + 2% amine oxide (on wt laundry liquid)) came to 560 mL. Besides, the Difference in data set [6] (Persil + 2% amine oxide) is 257 mL. Moreover, in data set [6] (Persil + 5% amine oxide), the Difference worked out at 280 mL.

The compound `CCCCCCCCCCCC[N+](C)(C)[O-]` [LAO, N,N-dimethyl laurylamine oxide, reference compound] came in with a Wet out time in data set [1] of 33 s. Also, the “Foam volume (ml) 5 min” value in data set [2] turned out to be 500 mL. For the same compound, the Viscosity is 2 cP in data set [3] (NaCl 0.5 wt %) and 11 cP in data set [3] (NaCl 1.0 wt %). Moreover, the Difference in data set [6] (Persil + 2% amine oxide) is 54 mL; in data set [6] (Persil + 5% amine oxide) it was 6 mL.

Take Alkylpolyglucoside [APG]: the “Zein score - normalized to LAE10” value in data set [5] stood at 0.586.

With Linear alkylbenzene sulfonate [LABS], the “Zein score - normalized to LAE10” value in data set [5] amounted to 4.670.

The values are drawn from patent publication US10961180B2, “Branched trialkyl amine oxides” (Eastman Chemical Company, priority 2018, dated 2021).
